For 6 molecules, half-life, EC50 and IC50 results are on record in US11760744B2, “Fused ring compounds” (Genentech, Inc., priority 2018, dated 2023).

A short description of series [1]: Whole blood stability assay. The class given is in vitro ADME. The settings on record: fresh whole blood, drug 1 μM, 37° C., 180 minutes incubation. As to the method: Whole Blood Stability Assay A whole blood stability assay was performed using fresh blood with a drug final concentration of 1 μM. The drug-blood mixtures were incubated at 37° C. for 180 minutes.

For series [2], the target named is T1, K-Ras G12C (Homo sapiens, UniProt P01116, G12C). As to the kind of experiment: Western blot assay for in cell alkylation of K-Ras G12C (HCC1171 cells). The class given is cell-based. More on the design: endogenous in cells; host or cells: HCC1171. Conditions: 18 hours at 37° C., 7 point dose response. In short, it runs like this:
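HCC1171 cells exposed to compounds for 18 h at 37° C, lysed, and analysed by SDS-PAGE/western blot with anti-K-Ras antibody and fluorescent secondary. Alkylated K-Ras separated by band shift; % alkylation = FI(alkylated)/(FI(alkylated)+FI(unalkylated))×100, IC50 from 7-point dose response.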
Target sequence in this assay (P01116 1-188 isoform P01116-2 G12C): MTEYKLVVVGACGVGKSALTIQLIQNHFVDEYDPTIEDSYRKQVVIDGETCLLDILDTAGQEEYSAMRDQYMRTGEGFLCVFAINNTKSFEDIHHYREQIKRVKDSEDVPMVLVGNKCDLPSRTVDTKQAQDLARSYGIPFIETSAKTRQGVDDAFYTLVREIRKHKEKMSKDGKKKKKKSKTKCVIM

Series [3] deals with T1, K-Ras G12C. In words: K-Ras G12C, SOS1, Raf RBD HTRF assay for inhibition of GTP exchange. The class given is biochemical. More on the design: K-Ras G12C (residues 2-188) and SOS1 (residues 564-1049) had N-terminal 6-His; made in house; host or cells: E. coli. Conditions: 18 hours preincubation with K-Ras G12C at room temperature; SOS1-mediated GTP exchange. A digest of the protocol: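 After 18 h at room temperature with compound, SOS1 (1.25 nM final) started exchange to GTP (150 μM final). C-Raf RBD, Tb-anti-FLAG and D2-anti-his (50, 1 and 12.5 nM) were then added. The 665/615 nm HTRF ratio was read after 2 h; buffer was HEPES/NaCl, 1 mM MgCl2, BSA, Tween-20 and DTT.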
Target sequence in this assay (P01116 2-188 isoform P01116-2 G12C): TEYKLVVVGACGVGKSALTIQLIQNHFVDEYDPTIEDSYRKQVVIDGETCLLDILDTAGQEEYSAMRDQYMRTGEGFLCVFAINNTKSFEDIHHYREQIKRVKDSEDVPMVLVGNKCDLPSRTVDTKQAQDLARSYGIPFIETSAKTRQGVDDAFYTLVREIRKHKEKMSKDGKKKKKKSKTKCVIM
Background: TR-FRET usually uses a lanthanide donor and a delayed reading to cut background.

Usually half-life stands for how long it takes for the measured level to halve. Read a high half-life as slow loss. Broadly, the EC50 is the concentration at which the effect is half-maximal. A low value points to an effect from little substance. Usually IC50 stands for the concentration needed to halve the response being measured. Lower therefore signals inhibition by little substance. `C=CC(=O)N1CCN(c2nc(OC[C@@H]3CCCN3C)nc3c2C[C@@H](C)[C@H](c2cccc4c2CCC4)C3)C[C@@H]1CC#N` (single isomer, unassigned) [Example 35d] had a half-life at 1 μM in series [1] of 1.45 h. On K-Ras G12C [2], a half-maximal response (EC50) required 0.98 nM. Moreover, on K-Ras G12C [3], the IC50 was < 10 nM.

For `C=CC(=O)N1CCN(c2nc(OC[C@@H]3C[C@@H](F)CN3C)nc3c2C[C@@H](C)[C@H](c2c(F)c(N)cc(C)c2C(F)(F)F)C3)[C@@H](C)C1` (single isomer, unassigned) [Example 36b], in series [1], the half-life at 1 μM is > 9 h. For the same molecule, the EC50 at K-Ras G12C [2] turned out to be 6 nM. The IC50 against K-Ras G12C [3] was < 10 nM.

Consider `C=CC(=O)N1CCN(c2nc(OC[C@@H]3C[C@@H](F)CN3C)nc3c2C[C@@H](CC)[C@H](c2c(F)c(N)cc(C)c2C(F)(F)F)C3)[C@@H](C)C1` (single isomer, unassigned) [Example 37a], for which the half-life at 1 μM in series [1] is > 9 h. The molecule also had an EC50 on K-Ras G12C [2] of 4.5 nM. At K-Ras G12C [3], the IC50 was < 10 nM.

In the case of `C=C(F)C(=O)N1CCN(c2nc(OC[C@@H]3C[C@@H](F)CN3C)nc3c2C[C@@H](C)[C@H](c2c(F)c(N)cc(C)c2C(F)(F)F)C3)C[C@@H]1CC#N` (single isomer, unassigned) [Example 38b], in series [1], the half-life at 1 μM was > 9 h. Moreover, at K-Ras G12C [2], the EC50 came out at 3.2 nM. The IC50 at K-Ras G12C [3] is < 10 nM.

`C=C(F)C(=O)N1CCN(c2nc(OC[C@@H]3C[C@@H](F)CN3C)nc3c2C[C@@H](C)[C@H](c2c(F)c(N)cc(C)c2C(F)(F)F)C3)C[C@H]1CC#N` (single isomer, unassigned) [Example 38c] gave a half-life at 1 μM in series [1] of 2.33 h. On K-Ras G12C [2], this molecule yielded an EC50 of 24 nM. The molecule further gave an IC50 against K-Ras G12C [3] of 15 nM.

Molecule `C=CC(=O)N1CCN(c2nc(OC[C@@H]3CCCN3C)nc3c2C[C@@H](C)[C@H](c2nc(N)ccc2C(F)(F)F)C3)[C@@H](C)C1` (single isomer, unassigned) [Example 41b] returned a half-life at 1 μM in series [1] of 3.33 h. Moreover, the midpoint of the response at K-Ras G12C [2], the EC50, lay at 8.1 nM. Further, the IC50 against K-Ras G12C [3] was < 10 nM.
